Results: patent publication US20190374628A1, “MUTATED FRAGMENTS OF THE RAS PROTEIN” (Targovax ASA, priority 2015, published 2019)
Values joined by “and” are separate entries in the source; they are usually repeats but may differ in a detail not shown here. Equal entries are not always repeated.

Columns and labels:
any RAS mutation = conditions: cited from earlier work
T-cells = experiment: 3-days T-cell proliferation assay (3H-thymidine) after three rounds of in vitro stimulation of PBMC bulk cultures with RAS peptides; type: cell-based, human; conditions: bulk cultures stimulated three rounds with TG02 + 13R, 10 μM peptide
Protocol: In this example, Buffy coats were collected from 4 normal human donors (Buffy 1, Buffy 2, Buffy 3, and Buffy 4) and were cultured in vitro. The in vitro PBMCs were stimulated with a single RAS peptide or a mixture of RAS peptides, and T-cell proliferation assays performed.
The procedure must be performed at room temperature until point 5. All handling of cells in the open is done in a vertical laminar flow hood. • 1. Rapidly transfer the vials, each vial with frozen PBMC from a buffy coat (Buffy 1, Buffy 2, Buffy 3, and Buffy 4), to a water bath at 37° C. • 2. Shake the vials manually at regular intervals (approx. 2-3 min.) and remove them from the water bath while some ice is still present. • 3. When all the ice is melted, transfer 1 ml of CellGro DC medium drop-wise to the cell suspension. • 4. Transfer the cell suspension to a 50 ml tube containing 20 ml of CellGro DC medium. • 5. Centrifuge cells at 500G for 5 min at room temperature. • 6. Resuspend the cells in 5 ml CellGro DC medium. • 7. Count the number of viable cells using a Burker chamber or KOVA Galsstic slides and adjust the cell concentration to 2×10^6 cells/ml in complete CellGro DC medium (see recipe). Total cell numbers: Buffy 1-45×10^6, Buffy 2-27.5×10^6, Buffy 3-40.5×10^6, and Buffy 4-40.5×10^6 cells.
b. Bulk cultures for increasing number of RAS peptide reactive T-cells • 1. […]

Substance	Outcome of treatment in patients having any RAS mutation (any RAS mutation)	Counts per minute (CPM), APC + T-cell + 13 C (T-cells; Donor #3, single replicates)	Mean counts per minute (CPM), APC + T-cell + 13 C (T-cells; Mean Donor #3)
paitumumab-FOLFOX4: panitumumab (printed paitumumab) in combination with FOLFOX4 chemotherapy	may even be harmed	–	–
KLVVVGAGCVGKSALTI (listed as Homo sapiens) [13C, RAS peptide of the peptide mixture having a G13C mutation]	–	27813 CPM and 32522 CPM and 28869 CPM	29735 CPM
